Test results taken from US6861431B2, “Compounds capable of modulating the activity of multidrug transporters and therapeutic use of the same” (The Board of Trustees of the University of Illinois, priority 2001, dated 2005).
Values after ≈ are worked out from the molar mass of the structure shown. “Also recorded” adds a separate entry of the source. Read-outs that look alike come from different tables or passages of the source. One block for each compound: values may come before it.

Assays:
P-gp [1] = test: Rho123 efflux from preloaded ConA cells; format: cell-based, mouse; parameters: increase of efflux of Rho123 from cells preloaded with the dye: dose or concentration left out as unconfirmed
Protocol: (§1) Drug accumulation and efflux assay. […] For drug efflux assay, cells after drug incubation were washed thoroughly with PBS, incubated in a drug-free media with or without compounds from the chemical library, and harvested at different time points for flow cytometric analysis (18).
The dynamics of reduction of Rho123 fluorescence was monitored by flow cytometry.

P-gp [2] = molecular target: T1, P-gp (Homo sapiens, UniProt P08183); test: Rho123 accumulation in KB-8-5-11 cells; format: cell-based; parameters: overexpressing P-gp as a result of MDR1 gene amplification (20); endogenous in cells; host or cells: KB-8-5-11 (multidrug resistant derivative of KB-3-1); conditions: KB-8-5-11 cells overexpressing P-gp
Excerpt: (§2) Drug accumulation and efflux assay.
To test the effect of Compound 102 specifically on P-gp, a pair of human cell lines used as conventional models for studying P-gp, i.e., P-gp-negative KB-3-1 and its multidrug resistant derivative KB-8-5-11, overexpressing P-gp as a result of MDR1 gene amplification (20), were used.

KB-3-1 cells = test: Drug sensitivity assay, KB-3-1 cells (P-gp-negative); format: cell-based, human
Protocol: (§3) Drug sensitivity assays. To estimate drug-mediated growth inhibition, 10^3 cells were plated per well of 96-well plates, and incubated with a range of concentrations of drugs added 24 hours after plating. After 5 to 7 hours of drug treatment, plates were fixed and stained using 2% methylene blue solution in 50% methanol. After elution by 1% SDS solution, optical density was determined on a Multiscan Ascent reader (Lybsystems, Helsinki, Finland) at 650 nm.
(§4) To determine transporter specificity of the identified compounds, the compounds were tested on cells differing in the type of multidrug transporter expressed: KB-8-5-11 cells, (expressing P-gp), SW1753-A120 cells (expressing MRP1), and KB-3-1 (expressing neither of the above transporters and highly sensitive to drugs that are P-gp or MRP1 substrates).

mouse ConA cells = test: DMBA sensitivity of mouse cells; format: cell-based
Protocol: (§5) The effect of the identified compounds on DMBA sensitivity of mouse cells also was tested. It has been reported that ABC type transporters (e.g., P-gp) are involved in the efflux of polycyclic aromatic hydrocarbon carcinogens from cells. The effect of the identified compounds on sensitivity of mouse cells to 7,12-dimethylbenz[a]anthracene (DMBA) was determined. […].

SW1753-A120 cells = test: Drug sensitivity assay, SW1753-A120 cells (expressing MRP1); format: cell-based; conditions: P-gp-negative; for cell sensitivity to vinblastine: MRP1-positive cells SW1753-A120 (FIG. 13)
Protocol: as §4

ConA cells = test: Drug sensitivity (growth inhibition) assay, ConA cells; format: cell-based, mouse; conditions: for IC50: Mus musculus, murine ConA cells, read-out: 50% growth inhibitory dose of the drug
Protocol: as §3, with “After 5 to 7 hours of drug treatment, plates were fixed and stained using 2% methylene blue solution in 50% methanol.” left out

P-gp [3] = molecular target: T1, P-gp; test: Drug resistance of mouse ConA cells expressing human P-gp (MDR1 cDNA transfection); format: cell-based; parameters: expressed in transfected cells; host or cells: mouse fibroblasts, line ConA, transfected with MDR1 cDNA in LNL6 (Mo-MuLV LTR promoter)
Excerpt: These cells are known to overexpress P-gp as result of MDR1 gene amplification. To completely eliminate possibility that some other ABC type transporter expressed in KB-8-5-11 cells might be responsible for this phenomenon, mouse fibroblasts, line ConA, permanently expressing human P-gp as a result of transfection with MDR1 cDNA-expressing plasmid LNL6 were used.

P-gp [4] = molecular target: T1, P-gp; test: P-gp-mediated efflux of taxol by KB-8-5-11 cells; format: cell-based; parameters: overexpressing P-gp as a result of MDR1 gene amplification (20); endogenous in cells; host or cells: KB-8-5-11 (multidrug resistant derivative of KB-3-1)
Excerpt: as §2
Consistent with the drug sensitivity data, Compound 102 suppressed P-gp-mediated efflux of taxol by KB-8-5-11 cells, acting as a P-gp inhibitor for this drug (FIGS. 4 and 5). These observations indicate that Compound 102 should be defined as a modulator rather than a general activator of P-gp that acts by changing relative substrate specificity of the transporter.

KB-8-5-11 cells = test: Drug sensitivity assay, KB-8-5-11 cells (P-gp-positive); format: cell-based, human; conditions: for IC50: Homo sapiens, human KB-8-5-11 cells, read-out: 50% growth inhibitory dose of the drug
Protocol: as §3, §4

[5] = DMBA sensitivity of mouse cells; format: cell-based; conditions: mouse fibroblasts, three days, without Compound 102; read-out: IC50 of DMBA cytotoxicity
Protocol: as §5

P-gp [6] = system: P-gp
Protocol: as §3, §1

P-gp [7] = molecular target: T1, P-gp
P-gp [8] = molecular target: T1, P-gp; remark: listed apart in the source
P-gp [9] = test: Rho123 accumulation in ConA cells; format: cell-based, mouse; conditions: identified compounds present
Protocol: Screening of a chemical library. Murine fibroblastoid cell line (ConA) was selected as the readout system for screening a chemical library for P-gp activators. […] Rho123, a classic fluorescent P-gp substrate that is detected easily using multichannel fluorimeter in living cells, was used as an efflux indicator. […] Primary screening was performed on ConA cells for compounds that interfere with Adr-induced activation of p53-responsive reporter LacZ gene as previously described (11). To identify P-gp modulators, all “hits” isolated after primary screening were tested for their ability to modulate cellular accumulation of Rho123. Con A cells grown in 96-well plates were incubated 4 hours with 0.5 μM Rho123 in combination with individual library compounds (2 μg/ml (2-5 μM)), and cell fluorescence was analyzed using fluorescent microscopy.
as §1
ConA cells were incubated two hours with Rho123 ([…]) or daunorubicin (500 ng/ml) in the presence of the identified compounds, and accumulation of the drugs was quantitated by flow cytometry.

T1 sequence (P08183 whole entry): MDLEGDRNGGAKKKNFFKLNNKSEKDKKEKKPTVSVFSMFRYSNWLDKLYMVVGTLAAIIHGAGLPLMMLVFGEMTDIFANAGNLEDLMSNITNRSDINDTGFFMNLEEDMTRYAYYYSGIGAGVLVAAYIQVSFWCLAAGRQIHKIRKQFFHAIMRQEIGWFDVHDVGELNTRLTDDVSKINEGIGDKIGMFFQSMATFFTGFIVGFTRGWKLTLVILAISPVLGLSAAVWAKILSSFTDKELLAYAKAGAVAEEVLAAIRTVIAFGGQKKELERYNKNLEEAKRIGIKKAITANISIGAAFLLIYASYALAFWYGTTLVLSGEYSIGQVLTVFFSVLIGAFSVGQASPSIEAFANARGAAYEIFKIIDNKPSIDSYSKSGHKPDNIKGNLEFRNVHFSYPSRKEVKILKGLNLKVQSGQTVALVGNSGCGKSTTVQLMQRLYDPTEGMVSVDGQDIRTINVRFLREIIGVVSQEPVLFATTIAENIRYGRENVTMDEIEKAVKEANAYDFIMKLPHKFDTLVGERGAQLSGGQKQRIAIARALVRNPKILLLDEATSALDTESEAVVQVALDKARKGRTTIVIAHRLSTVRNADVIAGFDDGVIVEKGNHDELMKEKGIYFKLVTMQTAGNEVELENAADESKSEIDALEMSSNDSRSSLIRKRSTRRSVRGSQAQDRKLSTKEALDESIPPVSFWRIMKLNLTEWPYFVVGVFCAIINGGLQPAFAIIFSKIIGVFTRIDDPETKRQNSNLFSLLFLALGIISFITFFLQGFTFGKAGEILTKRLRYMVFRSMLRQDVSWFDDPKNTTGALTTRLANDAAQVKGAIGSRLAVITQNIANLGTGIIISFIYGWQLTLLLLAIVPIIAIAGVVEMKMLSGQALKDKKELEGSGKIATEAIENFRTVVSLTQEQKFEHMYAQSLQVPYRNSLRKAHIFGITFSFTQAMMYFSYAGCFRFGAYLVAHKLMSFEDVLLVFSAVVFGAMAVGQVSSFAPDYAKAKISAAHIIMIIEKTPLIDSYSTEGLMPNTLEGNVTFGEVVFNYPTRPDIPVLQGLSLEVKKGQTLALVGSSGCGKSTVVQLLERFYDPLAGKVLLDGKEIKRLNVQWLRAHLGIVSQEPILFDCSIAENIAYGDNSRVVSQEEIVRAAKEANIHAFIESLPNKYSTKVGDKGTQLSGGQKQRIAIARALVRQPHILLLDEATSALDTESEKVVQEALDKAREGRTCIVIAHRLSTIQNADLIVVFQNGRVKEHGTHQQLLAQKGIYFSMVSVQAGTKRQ

Rho123 accumulation (P-gp [2]): strongly decreased | resistance to doxorubicin (P-gp [3]; mouse ConA fibroblasts expressing human P-gp (FIG. 10)): increased resistance | resistance to vinblastine (P-gp [3]; mouse ConA fibroblasts expressing human P-gp (data not shown)): decreased resistance | P-gp-mediated efflux of taxol (P-gp [4]): suppressed
Compound: Cc1ccc(-c2cn3c4c(sc3n2)CCCC4)cc1 [Compound 102, 2-p-Tolyl-5,6,7,8-tetrahydro-benzo[d]imidazo[2,1-b]thiazole]
increase of efflux of Rho123 from cells preloaded with the dye (P-gp [1]; ConA cells loaded with Rho123, Rho123-free medium, with vs without Compound 102 (FIGS. 2 and 3)): about 20 times | effect on drug sensitivity (KB-3-1 cells; P-gp-negative cell line KB-3-1): No effect | protection of cells from cytotoxicity of DMBA (mouse ConA cells): strongly protects | increase of natural level of resistance to DMBA (mouse ConA cells; mouse fibroblasts, 10 μM Compound 102): greater than 15 fold | cell sensitivity to vinblastine (SW1753-A120 cells): no effect | cell sensitivity to doxorubicin (SW1753-A120 cells; MRP1-positive cells SW1753-A120 (FIG. 16)): no effect | cell sensitivity to colcemide (ConA cells; ConA cells grown 72 hours with drug with or without Compound 102 (FIG. 6)): no effect

IC50 (KB-8-5-11 cells; with Compound 102): 1.2 µg/mL (≈ 2.21 µM) | IC50 (KB-8-5-11 cells; without Compound 102): 0.2 µg/mL (≈ 0.368 µM)
Compound: COc1cccc2c1C(=O)c1c(O)c3c(c(O)c1C2=O)C[C@@](O)(C(=O)CO)C[C@@H]3O[C@H]1C[C@H](N)[C@H](O)[C@H](C)O1 [Doxorubicin, adriamycin]
Change in sensitivity (x-fold) (ConA cells; ConA cells, Compound 102 (10 μM), fold resistance): 6 x-fold | IC50 (ConA cells; with Compound 102): 0.3 µg/mL (≈ 0.552 µM) | IC50 (ConA cells; without Compound 102): 0.05 µg/mL (≈ 0.092 µM) | Effect of Compound 102 on drug sensitivity of cell lines: ConA (Balb 3T3) (ConA cells; P-gp-positive ConA cells, label = drug): R | cytotoxicity of the drug in the presence of Compound 102 (P-gp [6]): less toxic

effect on P-gp-mediated Rho123 efflux (P-gp [7]): weak effect | changes in cell cross resistance to P-gp substrates tested (P-gp [8]): did not cause detectable changes
Compound: CC(=O)[C@H]1CC[C@H]2[C@@H]3CCC4=CC(=O)CC[C@]4(C)[C@H]3CC[C@]12C [progesterone]

Continued, compound first:

Compound: Cc1ccccc1Cn1c(=O)sc2ccccc21 [Compound 103]
cell sensitivity to vinblastine (KB-3-1 cells; P-gp- and MRP1-negative cells KB-3-1 (FIG. 14)): weak sensitizing effect | cell sensitivity to doxorubicin (KB-3-1 cells; P-gp- and MRP1-negative cells KB-3-1 (FIG. 17)): can increase cell resistance | cell sensitivity to vinblastine (SW1753-A120 cells): increases; also recorded: weak sensitizing effect | cell sensitivity to doxorubicin (KB-8-5-11 cells; P-gp-positive cells KB-8-5-11 (FIG. 15)): increase cell sensitivity

Compound: Cc1c2ccccc2c(C)c2c1ccc1ccccc12 [DMBA, 7,12-dimethylbenz[a]anthracene]
IC50 at 3 days [5]: 310 nM | IC50 (mouse ConA cells; Mus musculus, Fibroblast, 72 h, read-out: IC50 of DMBA cytotoxicity): 5000 nM

Compound: COC(=O)[C@H]1[C@H]2C[C@@H]3c4[nH]c5cc(OC)ccc5c4CCN3C[C@H]2C[C@@H](OC(=O)c2cc(OC)c(OC)c(OC)c2)[C@@H]1OC [reserpine]
effect of P-gp inhibitor on Compound 102-stimulated Rho123 efflux (P-gp [1]; ConA cells preloaded with Rho123, Compound 102 present): completely reverted | effect of P-gp inhibitor on compound-mediated reduction of Adr and Rho123 accumulation (P-gp [9]): completely reverted
